The target in assay [1] is T1, rat adrenergic α1B receptor (Rattus norvegicus, UniProt P15823).
T1 construct: rat adrenergic α1B receptor obtained from Wistar Rat liver; from tissue; host or cells: Wistar rat liver
T1 sequence (P15823 1-515): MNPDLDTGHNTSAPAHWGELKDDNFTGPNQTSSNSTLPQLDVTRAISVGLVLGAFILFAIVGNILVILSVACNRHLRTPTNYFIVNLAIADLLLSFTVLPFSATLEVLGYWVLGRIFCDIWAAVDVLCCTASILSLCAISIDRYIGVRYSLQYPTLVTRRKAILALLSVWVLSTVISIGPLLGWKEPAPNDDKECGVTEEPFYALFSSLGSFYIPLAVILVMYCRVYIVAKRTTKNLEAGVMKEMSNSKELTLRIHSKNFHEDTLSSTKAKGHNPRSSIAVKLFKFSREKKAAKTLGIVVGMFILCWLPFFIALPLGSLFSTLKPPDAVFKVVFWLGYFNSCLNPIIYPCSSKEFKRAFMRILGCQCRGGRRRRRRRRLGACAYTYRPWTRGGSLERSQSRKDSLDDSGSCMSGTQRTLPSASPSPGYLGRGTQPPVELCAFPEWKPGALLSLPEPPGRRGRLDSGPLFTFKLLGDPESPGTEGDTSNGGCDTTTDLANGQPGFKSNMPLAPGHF
The assay can be described thus: Radioligand binding, adrenergic α1B receptor ([3H]Prazosin). The settings on record: 0.1 μM compound, Wistar rat liver, read-out: Percentage inhibition of ligand binding, Adrenergic α1B. The method, then:
To evaluate in radioligand binding assays the activity of compounds, rat adrenergic α1B receptor obtained from Wistar Rat liver (Garcia-S' ainz, J. et al, Biochem. Biophys. Res. Commun. 186:760, 1992; Michel, A. et al, Br. J. Pharmacol. 98:883, 1989) in a modified Tris-HCl buffer (50 mM Tris-HCl buffer, pH 7.4, 0.5 mM EDTA) was used. Compounds were incubated with 0.25 nM [^3H]Prazosin for 60 min at […]. Non-specific binding was estimated in the presence of 10 μM phentolamine. Receptor proteins were filtered and washed, the filters were then counted to determine [^3H]Prazosin specifically bound. Compounds were screened at 1 μM or lower, using 1% DMSO as vehicle. Compounds were tested in this biochemical assay and percent inhibition of specific binding was determined. Biochemical assay results are presented as the percent inhibition of specific binding in Table 2.

The target in assay [2] is T2, human recombinant adrenergic α1D receptor (Homo sapiens, UniProt P25100).
T2 construct: expressed in transfected cells; host or cells: HEK-293
T2 sequence (P25100 1-572): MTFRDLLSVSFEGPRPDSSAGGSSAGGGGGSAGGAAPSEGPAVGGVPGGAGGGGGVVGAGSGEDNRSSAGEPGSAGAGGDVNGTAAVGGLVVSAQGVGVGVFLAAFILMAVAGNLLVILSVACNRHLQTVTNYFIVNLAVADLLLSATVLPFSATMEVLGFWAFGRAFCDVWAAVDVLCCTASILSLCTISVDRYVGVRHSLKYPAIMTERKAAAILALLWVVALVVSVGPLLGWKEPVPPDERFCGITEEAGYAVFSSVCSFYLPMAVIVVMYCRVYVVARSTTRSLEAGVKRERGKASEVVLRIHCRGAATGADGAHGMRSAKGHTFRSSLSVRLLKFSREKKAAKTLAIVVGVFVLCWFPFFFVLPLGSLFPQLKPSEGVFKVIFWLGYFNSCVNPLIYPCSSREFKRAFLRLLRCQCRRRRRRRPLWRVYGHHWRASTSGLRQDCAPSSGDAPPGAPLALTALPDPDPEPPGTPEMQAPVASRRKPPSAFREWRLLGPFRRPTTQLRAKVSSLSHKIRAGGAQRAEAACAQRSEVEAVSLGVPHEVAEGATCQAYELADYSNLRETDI
The assay can be described thus: Radioligand binding, adrenergic α1D receptor ([3H]Prazosin). The settings on record: 0.1 μM compound; HEK-293 cells; 0.6 nM [3H]Prazosin; read-out: Percentage inhibition of ligand binding, Adrenergic α1D. The procedure:
Compounds were incubated with 0.6 nM [3H]Prazosin for 60 min at 25° C. Non-specific binding was estimated in the presence of 10 μM phentolamine. Receptor proteins were filtered and washed, the filters were then counted to determine [3H]Prazosin specifically bound. Compounds were screened at 1 μM or lower, using 1% DMSO as vehicle. Biochemical assay results are presented as the percent inhibition of specific binding in Table 2.

Assay [3] has as its target T3, human recombinant adrenergic α2A receptor (Homo sapiens, UniProt P08913).
T3 construct: expressed in transfected cells; host or cells: insect Sf9 cells
T3 sequence (P08913 1-465): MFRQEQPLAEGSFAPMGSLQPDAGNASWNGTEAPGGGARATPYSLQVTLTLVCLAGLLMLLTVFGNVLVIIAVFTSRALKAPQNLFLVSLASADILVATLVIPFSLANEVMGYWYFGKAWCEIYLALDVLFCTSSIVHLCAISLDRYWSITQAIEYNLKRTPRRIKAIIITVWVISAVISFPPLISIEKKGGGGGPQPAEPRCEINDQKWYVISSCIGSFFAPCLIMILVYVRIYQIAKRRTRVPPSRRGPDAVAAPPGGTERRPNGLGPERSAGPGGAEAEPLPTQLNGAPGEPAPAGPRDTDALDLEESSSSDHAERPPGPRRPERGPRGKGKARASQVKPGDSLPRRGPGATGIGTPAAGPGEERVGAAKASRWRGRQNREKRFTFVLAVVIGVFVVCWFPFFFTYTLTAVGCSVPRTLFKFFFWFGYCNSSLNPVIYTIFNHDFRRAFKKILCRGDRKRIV
Nature of the assay: Radioligand binding, adrenergic α2A receptor ([3H]MK-912). The settings on record: 0.1 μM compound; Sf9 cells; 1 nM [3H]MK-912; read-out: Percentage inhibition of ligand binding, Adrenergic α2A. The procedure:
To evaluate in radioligand binding assays the activity of compounds, human recombinant adrenergic α2A receptor expressed in insect Sf9 cells (Uhlen, S. et al, J. Pharmacol. Exp. Ther. 271:1558, 1994) in a modified Tris-HCl buffer (50 mM Tris-HCl, pH 7.4, 12.5 mM MgCl2, 2 mM EDTA) was used. Compounds were incubated with 1 nM [^3H]MK-912 for 60 min at 25° C. MK912 is (2S-trans)-1,3,4,5′,6,6′,7,12b-octahydro-1′,3′-dimethyl-spiro[2H-benzofuro[2,3-a]quinolizine-2,4′(1′H)-pyrimidin]-2′(3′H)-one hydrochloride Non-specific binding was estimated in the presence of 10 μM WB-4101 (2-(2,6-Dimethoxyphenoxyethyl)aminoethyl-1,4-benzodioxane hydrochloride). Receptor proteins were filtered and washed, the filters were then counted to determine [^3H]MK-912 specifically bound. Compounds were screened at 1 μM or lower, using 1% DMSO as vehicle. Compounds were tested in this biochemical assay and percent inhibition of specific binding was determined. Biochemical assay results are presented as the percent inhibition of specific binding in Table 2.

Assay [4] concerns the target T4, human recombinant adrenergic α2B receptor (Homo sapiens, UniProt P18089).
T4 construct: expressed in transfected cells; host or cells: CHO-K1
T4 sequence (P18089 1-450): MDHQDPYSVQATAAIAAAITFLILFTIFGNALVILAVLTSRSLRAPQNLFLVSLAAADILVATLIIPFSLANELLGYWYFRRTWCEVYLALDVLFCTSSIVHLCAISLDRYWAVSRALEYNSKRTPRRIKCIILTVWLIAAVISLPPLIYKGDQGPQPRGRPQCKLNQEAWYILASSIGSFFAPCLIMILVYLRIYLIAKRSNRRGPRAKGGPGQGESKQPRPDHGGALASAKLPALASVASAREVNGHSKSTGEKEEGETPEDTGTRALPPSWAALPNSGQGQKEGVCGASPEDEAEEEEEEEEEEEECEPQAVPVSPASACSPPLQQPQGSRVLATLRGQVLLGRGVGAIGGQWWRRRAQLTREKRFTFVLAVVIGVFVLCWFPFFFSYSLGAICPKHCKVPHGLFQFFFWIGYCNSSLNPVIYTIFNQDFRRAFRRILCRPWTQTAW
The assay can be described thus: Radioligand binding, adrenergic α2B receptor ([3H]Rauwolscine). The settings on record: 0.1 μM compound, CHO-K1 cells, read-out: Percentage inhibition of ligand binding, Adrenergic α2B. The procedure:
To evaluate in radioligand binding assays the activity of compounds, human recombinant adrenergic α2B receptor expressed in Chinese hamster ovary (CHO) K1 cells (Uhlen, S. et al, Eur. J. Pharmacol. 343(1):93, 1998) in a modified Tris-HCl buffer (50 mM Tris-HCl, pH 7.4, 12.5 mM MgCl2, 1 mM EDTA, 0.2% BSA) was used. Compounds were incubated with 2.5 nM [^3H]Rauwolscine for 60 min at 25° C. Non-specific binding was estimated in the presence of 10 μM Prazosin. Receptor proteins were filtered and washed, the filters were then counted to determine [^3H]Rauwolscine specifically bound. Compounds were screened at 1 μM or lower, using 1% DMSO as vehicle. Compounds were tested in this biochemical assay and percent inhibition of specific binding was determined. Biochemical assay results are presented as the percent inhibition of specific binding in Table 2.

On to `Cc1ccc2c(c1)c1c(n2-c2ccc3c(c2)CCN(C=O)C3)CCN(C)C1` [Compound No. 77, 6-(2,8-dimethyl-1,2,3,4-tetrahydro-pyrido[4,3-b]indol-5-yl)-3,4-dihydro-1H-isoquinoline-2-carbaldehyde], for which the inhibition at 0.1 µM was 15% in assay [1], 6% in assay [2], 15% in assay [3] and 45% in assay [4].

In the case of `CNC(=O)c1ccc(-c2cscc2-n2c3c(c4cc(C)ccc42)CN(C)CC3)cn1` [Compound No. 73], the inhibition at 0.1 µM in assay [1] was 64%; in assay [2], 83%; in assay [3], 16%; in assay [4], 94%.

Take `Cc1ccc2c(c1)c1c(n2-c2ccc(-c3cnn(C)c3)cn2)CCN(C)C1` [Compound No. 134, 2,8-dimethyl-5-(5-(1-methyl-1H-pyrazol-4-yl)pyridin-2-yl)-2,3,4,5-tetrahydro-1H-pyrido[4,3-b]indole]: the inhibition at 0.1 µM in assay [1] is 43%; in assay [2] it was 30%; in assay [3], 38%; in assay [4] it was 73%.

Consider `Cc1ccc2c(c1)c1c(n2-c2ccsc2)CCN(C)C1` [Compound 14, 2,8-dimethyl-5-thiophen-3-yl-2,3,4,5-tetrahydro-1H-pyrido[4,3-b]indole], for which the inhibition at 0.1 µM in assay [1] was 38%; in assay [2], 20%; in assay [3], 23%; in assay [4], 51%.

In the case of `Cc1ccc2c(c1)c1c(n2-c2ccc(-c3cncc4ccccc34)cn2)CCN(C)C1` [Compound No. 135, 5-(5-(isoquinolin-4-yl)pyridin-2-yl)-2,8-dimethyl-2,3,4,5-tetrahydro-1H-pyrido[4,3-b]indole], the inhibition at 0.1 µM in assay [1] was 59%; in assay [2], 64%; in assay [3] it was 56%; in assay [4] it was 99%.

Regarding `Cc1ccc2c(c1)c1c(n2-c2cccc(-c3ccc(O)nc3)c2)CCN(C)C1` [Compound 52, 5-(3-(2,8-dimethyl-3,4-dihydro-1H-pyrido[4,3-b]indol-5(2H)-yl)phenyl)pyridin-2-ol], the inhibition at 0.1 µM is 6% in assay [1], -3% in assay [2], 43% in assay [3] and 36% in assay [4].

Regarding `Cc1ccc2c(c1)c1c(n2-c2ccc3cnccc3c2)CCN(C)C1` [Compound 38], the inhibition at 0.1 µM in assay [1] turned out to be 31%; in assay [2] it was 32%; in assay [3], 32%; in assay [4], 57%.

Turning to `Cc1ccc2c(c1)c1c(n2-c2ccc(-c3ccnn3C)cn2)CCN(C)C1` [Compound No. 146, 2,8-dimethyl-5-(5-(1-methyl-1H-pyrazol-5-yl)pyridin-2-yl)-2,3,4,5-tetrahydro-1H-pyrido[4,3-b]indole], the inhibition at 0.1 µM in assay [1] amounted to 70%; in assay [2] it was 79%; in assay [3] it was 26%; in assay [4], 54%.

As for `CC(=O)Nc1ccc(-c2ccccc2-n2c3c(c4cc(C)ccc42)CN(C)CC3)cn1` [Compound No. 83, N-(5-(2-(2,8-dimethyl-3,4-dihydro-1H-pyrido[4,3-b]indol-5(2H)-yl)phenyl)pyridin-2-yl)acetamide], the inhibition at 0.1 µM was found to be 18% in assay [1], 64% in assay [2], 20% in assay [3] and 71% in assay [4].

As for `Cc1ccc2c(c1)c1c(n2-c2cccc(-c3c(C)noc3C)c2)CCN(C)C1` [Compound No. 65, 4-(3-(2,8-dimethyl-3,4-dihydro-1H-pyrido[4,3-b]indol-5(2H)-yl)phenyl)-3,5-dimethylisoxazole], the inhibition at 0.1 µM is 14% in assay [1], 1% in assay [2], 33% in assay [3] and 46% in assay [4].
